This passage reports inhibition in vivo and melting point results from patent US9340522B2, “Pyrazolone-derivatives and their use as PDE-4 inhibitors” (TAKEDA GMBH, priority 2008, dated 2016).

Read-outs that look alike come from different tables or passages of the source.

The melting point is the temperature of the solid-liquid transition.

The subject of data set [1] is LPS-induced pulmonary inflammation model in rats. The data set is described as follows: LPS-induced pulmonary inflammation model in rats (Method A). In kind it is in vivo. The settings on record: Rattus norvegicus, inhaled or nasal, dosage of 1 mg/kg, intratracheal dry powder insufflation 2 h prior LPS challenge, BALF 16 h after LPS, in comparison to the placebo group. As to the method:
Exposure of rats to aerosolized lipopolysaccharide (LPS) causes a pulmonary mainly neutrophilic inflammation, which can be assessed by bronchoalveolar lavage (BAL). LPS-induced pulmonary inflammation models are robust and are commonly used for the evaluation of test compounds modulating the immediate immune response. Phosphodiesterase-4 inhibitors are administered by intratracheal dry powder insufflation 2 h prior nose-only LPS challenge in rats. The antiinflammatory activity of the phosphodiesterase inhibitors is assessed based on pulmonary total leukocyte and neutrophil counts in the bronchoalveolar lavage fluid 16 h after LPS exposure.
Male Sprague Dawley rats weighing 250-300 g are used. Rats are delivered 1 weak prior to the experiments and have free access to water and food.
The test compound in crystalline and micronized state is blended with lactose for inhalation ad 10 mg/kg (Respitose® SV003, DMV International, Netherlands). Respitose® and test compound are transferred to 12 ml tubes and are blended for 10 min. Dilution series are prepared from the this stock blend.
A device consisting of an Abbocath®-T catheter (18G×51 mm), a one-way stop-cock and a 5 ml syringe is used for test compound insufflation. Weighed test compound blends are directly filled in the stop-cocks. Intubation of the rats is guided by sight and is done under a short time halothane anesthesia.
The administered dose of the blended material is 10 mg/kg. The expected material loss in the device is 25%, therefore the weighted dose used is 12.5 mg/kg. One day before the experiment the rat body weights are documented and the mean body weight is used to calculate the administered blend dose per rat. LPS challenged and unchallenged control animals received drug-free Respitose® as placebo. Test compound blends and Respitose are administered 2 h prior LPS challenge.
Conscious and restrained animals are connected to a nose-only exposure system (CR equipment SA, Tannay, Switzerland) and are exposed to the LPS aerosol for 30 min. The LPS-containing aerosol is generated using a compressed air driven medication nebulizer device (OCTURNO Medizintechnik GmbH, Germany). The LPS solution (E. coli, Serotype 055B5, Art.#L2880, Lot#114K4103, Sigma-Aldrich; 0.15 mg/ml, diluted in 0.1% hydroxylamine/PBS) is continuously delivered by a syringe pump (20 ml/h) to the nebulizer device. The aerosol is dispersed and transported to the exposure tower by admixture of compressed air. All rats except negative controls are exposed to LPS.
Sixteen hours after LPS challenge, animals are sacrificed with Trapanal (thiopental, […], 2 ml/rat, i.p.), the final body weights are determined and BALs are performed. For the BAL the trachea is exposed and cannulated, followed by gently lavaging the lungs three times in situ with 4 ml PBS buffer.
Determination of total leukocyte and neutrophil counts in BALF is performed with an automated leukocyte differentiation system (XT-20001V, Sysmex, Norderstedt, Germany).
Suppression of LPS-induced total cell and neutrophil influx into the lungs is calculated in % using the means of the cell counts of each treatment group in relation to the control groups:
Statistical analysis is performed on the primary cell count data using one-way ANOVA and Dunnett's multiple comparison post test vs. positive control. The Grubbs test is used to detect outliers.

Where [2] appears, read: Neutrophil, read-out: reduction of neutrophils.
Setting [3] is: read-out: reduction of the total cell count.

Take `COC(=O)c1ccccc1S(=O)(=O)N1CCC(N2N=C(c3ccc(OC)c(OC)c3)C(C)(C)C2=O)CC1` [Compound 2, Methyl 2-({4-[3-(3,4-dimethoxyphenyl)-4,4-dimethyl-5-oxo-4,5-dihydro-1H-pyrazol-1-yl]piperidin-1-yl}sulfonyl)benzoate]: the inhibition in vivo at 1 mg/kg in data set [1] (setting [2]) was 15 to 53%; in data set [1] (setting [3]), 22 to 60%.

In the case of `COc1ccc(C2=NN(C3CCN(S(=O)(=O)c4c(C(C)C)cc(C(C)C)cc4C(C)C)CC3)C(=O)C2(C)C)cc1OC` [Compound 9, 5-(3,4-Dimethoxyphenyl)-4,4-dimethyl-2-(1-{[2,4,6-tri(propan-2-yl)phenyl]sulfonyl}piperidin-4-yl)-2,4-dihydro-3H-pyrazol-3-one], the inhibition in vivo at 1 mg/kg in data set [1] (setting [2]) fell in the range of 15 to 53%; in data set [1] (setting [3]), 22 to 60%.

As for `COc1ccc(C2=NN(C3CCN(S(=O)(=O)c4cccc(C)c4)CC3)C(=O)C2(C)C)cc1OC` [Compound 11, 5-(3,4-Dimethoxyphenyl)-4,4-dimethyl-2-{1-[(3-methylphenyl)sulfonyl]piperidin-4-yl}-2,4-dihydro-3H-pyrazol-3-one], the values for the inhibition in vivo at 1 mg/kg in data set [1] (setting [2]) and in data set [1] (setting [3]) were 15 to 53% and 22 to 60%, respectively.

For `COc1ccc(C2=NN(C3CCN(S(=O)(=O)c4ccccc4F)CC3)C(=O)C2(C)C)cc1OC` [Compound 14, 5-(3,4-Dimethoxyphenyl)-2-{1-[(2-fluorophenyl)sulfonyl]piperidin-4-yl}-4,4-dimethyl-2,4-dihydro-3H-pyrazol-3-one], the inhibition in vivo at 1 mg/kg in data set [1] (setting [2]) was in the range of 15 to 53%; in data set [1] (setting [3]), 22 to 60%.

`COc1ccc(C2=NN(C3CCN(S(=O)(=O)c4ccccc4C(F)(F)F)CC3)C(=O)C2(C)C)cc1OC` [Compound 18, 5-(3,4-Dimethoxyphenyl)-4,4-dimethyl-2-(1-{[2-(trifluoromethyl)phenyl]sulfonyl}piperidin-4-yl)-2,4-dihydro-3H-pyrazol-3-one]: the results for the inhibition in vivo at 1 mg/kg in data set [1] (setting [2]) and in data set [1] (setting [3]) were 15 to 53% and 22 to 60%, respectively.

Compound `COc1ccc(C2=NN(C3CCN(S(=O)(=O)c4cccc(C(=O)O)c4)CC3)C(=O)C2(C)C)cc1OC` [Compound 25, 3-({4-[3-(3,4-Dimethoxyphenyl)-4,4-dimethyl-5-oxo-4,5-dihydro-1H-pyrazol-1-yl]piperidin-1-yl}sulfonyl)benzoic acid] came in with a melting point of 244 °C.

`COC(=O)c1cccc(S(=O)(=O)N2CCC(N3N=C(c4ccc(OC)c(OC)c4)C(C)(C)C3=O)CC2)c1` [Compound 26, Methyl 3-({4-[3-(3,4-dimethoxyphenyl)-4,4-dimethyl-5-oxo-4,5-dihydro-1H-pyrazol-1-yl]piperidin-1-yl}sulfonyl)benzoate] yielded a melting point of 214 °C.

In the case of `COc1cc(C2=NN(C3CCN(S(=O)(=O)c4cccc(C)c4)CC3)C(=O)C2(C)C)cc2c1OC(C)(C)C2` [Compound 32, 5-(7-Methoxy-2,2-dimethyl-2,3-dihydro-1-benzofuran-5-yl)-4,4-dimethyl-2-{1-[(3-methylphenyl)sulfonyl]piperidin-4-yl}-2,4-dihydro-3H-pyrazol-3-one], the melting point is 183 °C.

`COc1ccc(C2=NN(C3CCN(C(=O)c4cc5ccccc5[nH]4)CC3)C(=O)C2(C)C)cc1OC` [Compound 61, 5-(3,4-Dimethoxyphenyl)-2-[1-(1H-indol-2-ylcarbonyl)piperidin-4-yl]-4,4-dimethyl-2,4-dihydro-3H-pyrazol-3-one] yielded a melting point of 265 °C.

As to `COc1cccc(C(=O)N2CCC(N3N=C(c4ccc(OC)c(OC)c4)C(C)(C)C3=O)CC2)c1` [Compound 65, 5-(3,4-Dimethoxyphenyl)-2-{1-[(3-methoxyphenyl)carbonyl]piperidin-4-yl}-4,4-dimethyl-2,4-dihydro-3H-pyrazol-3-one], the inhibition in vivo at 1 mg/kg in data set [1] (setting [2]) lay in the range of 15 to 53%; in data set [1] (setting [3]), 22 to 60%.

In the case of `COc1ccc(C2=NN(C3CCN(C(=O)c4cccc5ccccc45)CC3)C(=O)C2(C)C)cc1OC` [Compound 68, 5-(3,4-Dimethoxyphenyl)-4,4-dimethyl-2-[1-(naphthalen-1-ylcarbonyl)piperidin-4-yl]-2,4-dihydro-3H-pyrazol-3-one], the inhibition in vivo at 1 mg/kg was 15 to 53% in data set [1] (setting [2]) and 22 to 60% in data set [1] (setting [3]).

For `COc1ccc(C2=NN(C3CCN(C(=O)c4cccc(Cl)c4)CC3)C(=O)C2(C)C)cc1OC` [Compound 69, 2-{1-[(3-Chlorophenyl)carbonyl]piperidin-4-yl}-5-(3,4-dimethoxyphenyl)-4,4-dimethyl-2,4-dihydro-3H-pyrazol-3-one], the inhibition in vivo at 1 mg/kg in data set [1] (setting [2]) is 15 to 53%; in data set [1] (setting [3]), 22 to 60%.

The compound `CCOc1cccc(C(=O)N2CCC(N3N=C(c4ccc(OC)c(OC)c4)C(C)(C)C3=O)CC2)c1` [Compound 70, 5-(3,4-Dimethoxyphenyl)-2-{1-[(3-ethoxyphenyl)carbonyl]piperidin-4-yl}-4,4-dimethyl-2,4-dihydro-3H-pyrazol-3-one] came in with a melting point of 154 to 156 °C. In addition, the inhibition in vivo at 1 mg/kg in data set [1] (setting [2]) lay in the range of 15 to 53%. Moreover, the inhibition in vivo at 1 mg/kg in data set [1] (setting [3]) lay in the range of 22 to 60%.

Consider `COc1ccc(C2=NN(C3CCN(C(=O)c4ccccc4Br)CC3)C(=O)C2(C)C)cc1OC` [Compound 72, 2-{1-[(2-Bromophenyl)carbonyl]piperidin-4-yl}-5-(3,4-dimethoxyphenyl)-4,4-dimethyl-2,4-dihydro-3H-pyrazol-3-one], for which the results for the inhibition in vivo at 1 mg/kg in data set [1] (setting [2]) and in data set [1] (setting [3]) were 15 to 53% and 22 to 60%, respectively.

Take `COc1ccc(C2=NN(C3CCN(C(=O)c4cc(OCc5ccccc5)ccc4C)CC3)C(=O)C2(C)C)cc1OC` [Compound 84, 2-(1-{[5-(Benzyloxy)-2-methylphenyl]carbonyl}piperidin-4-yl)-5-(3,4-dimethoxyphenyl)-4,4-dimethyl-2,4-dihydro-3H-pyrazol-3-one]: the inhibition in vivo at 1 mg/kg in data set [1] (setting [2]) was 15 to 53%; in data set [1] (setting [3]) it was 22 to 60%.

`COc1ccc(C2=NN(C3CCN(C(=O)c4cc(O)ccc4C)CC3)C(=O)C2(C)C)cc1OC` [Compound 85, 5-(3,4-Dimethoxyphenyl)-2-{1-[(5-hydroxy-2-methylphenyl)carbonyl]piperidin-4-yl}-4,4-dimethyl-2,4-dihydro-3H-pyrazol-3-one]: the melting point is 214 to 215 °C. The inhibition in vivo at 1 mg/kg in data set [1] (setting [2]) fell in the range of 15 to 53%. Besides, the inhibition in vivo at 1 mg/kg in data set [1] (setting [3]) lay within 22 to 60%.

Take `COc1ccc(C2=NN(C3CCN(C(=O)c4cc(O)ccc4F)CC3)C(=O)C2(C)C)cc1OC` [Compound 90, 5-(3,4-Dimethoxyphenyl)-2-{1-[(2-fluoro-5-hydroxyphenyl)carbonyl]piperidin-4-yl}-4,4-dimethyl-2,4-dihydro-3H-pyrazol-3-one]: the inhibition in vivo at 1 mg/kg lay in the range of 15 to 53% in data set [1] (setting [2]) and 22 to 60% in data set [1] (setting [3]).

Consider `COc1ccc(C2=NN(C3CCN(C(=O)c4ccccc4O)CC3)C(=O)C2(C)C)cc1OC` [Compound 94, 5-(3,4-Dimethoxyphenyl)-2-{1-[(2-hydroxyphenyl)carbonyl]piperidin-4-yl}-4,4-dimethyl-2,4-dihydro-3H-pyrazol-3-one], for which the melting point was in the range of 212 to 213 °C. For the same compound, the inhibition in vivo at 1 mg/kg in data set [1] (setting [2]) is 15 to 53%. In addition, the inhibition in vivo at 1 mg/kg in data set [1] (setting [3]) fell in the range of 22 to 60%.

Consider `COc1ccc(C2=NN(C3CCN(C(=O)c4ccccc4OC4CCCC4)CC3)C(=O)C2(C)C)cc1OC` [Compound 96, 2-(1-{[2-(Cyclopentyloxy)phenyl]carbonyl}piperidin-4-yl)-5-(3,4-dimethoxyphenyl)-4,4-dimethyl-2,4-dihydro-3H-pyrazol-3-one], for which the melting point amounted to 176 °C. In data set [1] (setting [2]), the inhibition in vivo at 1 mg/kg is 15 to 53%. Moreover, the inhibition in vivo at 1 mg/kg in data set [1] (setting [3]) was in the range of 22 to 60%.

On to `COc1ccc(C2=NN(C3CCN(C(=O)c4ccccc4OCC(N)=O)CC3)C(=O)C2(C)C)cc1OC` [Compound 97, 2-[2-({4-[3-(3,4-Dimethoxyphenyl)-4,4-dimethyl-5-oxo-4,5-dihydro-1H-pyrazol-1-yl]piperidin-1-yl}carbonyl)phenoxy]acetamide], for which the inhibition in vivo at 1 mg/kg in data set [1] (setting [2]) is 15 to 53%; in data set [1] (setting [3]), 22 to 60%.
